The source of these data is ChEMBL document CHEMBL1201862, “PubChem BioAssay data set” (2004).

Assay in all cases: growth of human tumour cells (NCI), 48 h
Assay [1] deals with MCF7.
For assay [2], the system named is UACC-62.
In assay [3] the test system is NCI-H522.
Assay [4] concerns Hs-578T.
For assay [5], the system named is A498.
The test system of assay [6] is T47D.
The test system of assay [7] is NCI/ADR-RES.
For assay [8], the system named is LOX IMVI.
In assay [9] the test system is UO-31.
Assay [10] has as its system NCI-H460.
Assay [11] has as its system K562.
For assay [12], the system named is OVCAR-4.
The test system of assay [13] is ACHN.
Assay [14] concerns SF-268.
Assay [15] deals with SW-620.
For assay [16], the system named is COLO 205.
Assay [17] concerns SF-295.
Assay [18] concerns CCRF-CEM.
Assay [19] has as its system BT-549.
Assay [20] concerns SK-OV-3.

Molecules are shown by their SMILES.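 The compound was tested at five concentrations on cells cultured in 96-well plates, with a 48-hour exposure period. At the GI50, growth is halved.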 Active and inactive are the calls of the source. Cut-off read from the data, not from the text of the source: active = GI50 up to about 1.1 µM and inactive = higher. Positions of bridges follow the written chain, without caps; N, C: chain ends. Non-standard residues stand in square brackets, D forms with d. Residues, ends and D or L forms follow the SMILES beside them. ξ: configuration not given here. *: point of attachment. X28 = O=C(/C=C/C=C/C=C/C=C/C=C/C(=O)*)NC1=C(O)CCC1=O; Pro(4R-Me) = C[C@H]1CN[C@H](C(=O)O)C1; NMeA = CN[C@@H](C)C(=O)O; ξF = NC(Cc1ccccc1)C(=O)O; ξA = CC(N)C(=O)O

On to `NC1CCC(c2cc3ccccc3s2)(N2CCCCC2)CC1` (stereo not given), for which the GI50 in assay [1] was 1.68 µM (inactive); in [2], 2.47 µM (inactive); in [3] it was 1.76 µM (inactive); in [4], 4.11 µM (inactive); in assay [5], 9.29 µM (inactive); in [6], 2.09 µM (inactive). Besides, the GI50 in assay [7] is 1.19 µM (inactive); in assay [8], 1.51 µM (inactive); in [9], 2.31 µM (inactive); in [10] it was 1.63 µM (inactive); in [11], 1.63 µM (inactive); in assay [12] it was 3.33 µM (inactive). In addition, the GI50 in [13] was 3.41 µM (inactive); in [14], 3.57 µM (inactive); in [15], 1.61 µM (inactive); in assay [16], 1.58 µM (inactive); in [17], 2.64 µM (inactive); in assay [18] it was 1.01 µM (active). In addition, the GI50 was 1.21 µM (inactive) in [19] and 10.6 µM (inactive) in assay [20].
On to `CC1NC(=O)[C@H](C)N(C)C(=O)[C@@H]2CCCN2C(=O)[C@@H](NC(=O)C(Cc2ccccc2)NC(=O)/C=C/C=C/C=C/C=C/C=C/C(=O)NC2=C(O)CCC2=O)COC(=O)[C@@H]2C[C@@H](C)CN2C1=O` (stereo partly drawn) (X28-[ξF]SP[NMeA][ξA][Pro(4R-Me)]; ester 2-C), for which the GI50 in assay [1], in assay [2], in [3], in assay [4], in [5] and in assay [6] was > 100 µM (inactive) each time. The GI50 in [7], in [8], in assay [9], in [10], in assay [11] and in assay [12] was > 100 µM (inactive) in each case. Besides, the GI50 in [13], in [14], in [15], in [16], in assay [17] and in [18] was > 100 µM (inactive) in each case. The GI50 in assay [19] and in [20] was > 100 µM (inactive) throughout.
